Reference: patent US20230416209A1, “COMPOUNDS AND METHODS TO TARGET GLUCOSE-STIMULATED PHOSPHOHISTIDINE SIGNALING AND ESOPHAGEAL CANCER GROWTH” (Health Research, Inc., priority 2020, published 2023)
Like-named read-outs stand apart in the source and are kept apart here.

Experiments:
KYSE70 cells = assay: BrdU coupling ELISA of Glc-induced ESCC cell proliferation; assay type: cell-based; details: Homo sapiens, KYSE-70, serum-free medium containing Glc, BrdU and varied concentrations of inhibitor, read-out: IC^50 on ESCC cell proliferation
Procedure: (§1) A. Top ranked small molecules that bind to FAK H58 site. B. FAK^His58 inhibitors attenuate Glc-induced phosphorylation of FAK H58. In the absence of growth factors, KYSE70 cells were stimulated by Glc with or without FAK^His58 inhibitors (H5). N=3, **: p<0.001 vs vehicle+Glc. C. Dose responses of FAK^His58 inhibitors on proliferation. KYSE70 cells were incubated in serum-free medium containing Glc, BrdU and varied concentrations of FAK^His58 inhibitors (H5). BrdU coupling ELISA was performed to assess the relative levels of newly synthesized BrdU-DNA. IC^50 values were calculated.
(§2) Reproducible test: BrdU coupling ELISA, pHis-FAK assays and IP/IB were performed to confirm the FAK H58 hit inhibition of ESCC proliferation, phosphorylation of FAK on H58 and FAK-RB1 interaction (FIGS. 2-4).

TE9 = assay: WST-1 proliferation assay, TE9 cells; assay type: cell-based; details: Homo sapiens, TE-9; medium containing 5% FBS, 48 hr, WST-1 assay; read-out: IC^50 of H5 on ESCC cells, TE9
TE10 cells = assay: WST-1 proliferation assay, TE10 cells; assay type: cell-based; details: Homo sapiens, TE-10; medium containing 5% FBS, 48 hr, WST-1 assay; read-out: IC^50, TE10
KYSE70 = assay: WST-1 proliferation assay, KYSE70 cells; assay type: cell-based; details: Homo sapiens, KYSE-70; medium containing 5% FBS, 48 hr, WST-1 assay; read-out: IC^50 of H5 on ESCC cells, KYSE70
ESCC (KYSE520) cells = assay: WST1 analysis of cisplatin combined with FAK H58 inhibitor, KYSE520; assay type: cell-based
Procedure: ESCC (KYSE520) cells were seeded on a 96-well plate at a density of 2000 cells/well in complete medium. The next day, medium was replaced with the serum-reduced medium (5% FBS) containing 0-80 μM of cisplatin and 5 fixed doses of H5 (0 μM, 5 μM, 10 μM, 20 μM, or 40 μM). The cells were kept for 72 hrs. WST1 analysis, a MTT-like assay, was performed to assess proliferation. Log (inhibition) vs. response—variable (four parameters). Prism was utilized to find the best-fit value and to calculate a complete confidence interval.
Synergistic effects of the chemotherapy drug combined with FAK H58 inhibitor. Chemotherapies are commonly used treatments for patients with ESCC. It was sought to determine whether the inhibition of glucose-induced G1-to-S phase transition of the cell cycle coupled with the interruption of DNA synthesis by chemotherapeutic agents is synergistic. ESCC cells (KYSE70 and KYSE520) were cultured in the medium containing reduced FBS (5%), 0-80 μM of cisplatin and 5 fixed doses of H5 (0, 5, 10, 20, or 40 μM) for 72 hr. Cell proliferation was assessed using WST1, a MTT-like reagent.
To assess the synergistic effects of cisplatin coupled with the FAK H58 inhibitor derivative (H5A), ESCC cells (KYSE70 and KYSE520) were treated with 0-80 μM of cisplatin and 5 fixed doses of H5 Å for 72 hr. The H5 derivative H5 Å enhanced the inhibitory effects of cisplatin in KYSE70 from 4 to 2 μM (FIG. 7) and in KYSE520 from 27 to 24 μM (FIG. 8), respectively.

FAK^pHis58 = assay: Glc-induced phosphorylation of FAK H58 in KYSE70 cells; assay type: cell-based; details: KYSE70 cells stimulated by Glc in the absence of growth factors
Procedure: as §1, §2

NME1 (Homo sapiens) = assay: NME1-catalyzed histidine phosphorylation of recombinant FAK (pHis-rFAK ELISA); assay type: biochemical; details: purified NME1 and rFAK, 0-1 μM, 3 hr
Source text: A. Assessment of Glc-altered NM1 phosphorylation of pHis-FAK. NME1 was pulldown with an anti-NME1 antibody from KYSE70 cells +/−Glc stimulation and added to the anti-pHis antibody (rabbit)-coated wells. The anti-FAK (mouse) was used to detect the pHis-FAK on the plate. N=3, *: p<0.05, ***: p<0.001 and ****: p<0.0001 vs No NME1 or NME1 (−Glc). B. Glc increases NME1 in xenograft lysates derived from fasting mice +/−Glc. C. H5 attenuates NME1-increased levels of pHis-rFAk. Purified NMR1 and recombinant FAK (rFAK) were incubated in the NME kinase buffer in the presence of varied concentrations (0-1 μM) of vehicle of H5 for 3 hr. The relative levels of pHis-rFAK were assessed using ELISA.

FAK-RB1 interaction = FAK-RB1 interaction (Homo sapiens, UniProt Q05397); assay: FAK-RB1 interaction assay (rFAK/rRB1 co-IP ELISA); assay type: biochemical; details: rFAK with 0-10 μM for 1 hr, then rRB1 3 hr
Procedure: Then, rRB1 was added to mixture and kept at room temperature for 3 hr. The mixture was added to the anti-FAK antibody-coated plated. After extensive washing, the co-IPed rRB1 was detected using an anti-RB1 antibody.

ESCC (KYSE70) cells = assay: WST1 analysis of cisplatin combined with FAK H58 inhibitor, KYSE70; assay type: cell-based; details: KYSE70, 72 hr
Procedure: ESCC (KYSE70) cells were seeded on a 96-well plate at a density of 2000 cells/well in complete medium. The next day, medium was replaced with the serum-reduced medium (5% FBS) containing 0-80 μM of cisplatin and 5 fixed doses of H5 (0 μM, 5 μM, 10 μM, 20 μM, or 40 μM). The cells were kept for 72 hrs. WST1 analysis, a MTT-like assay, was performed to assess proliferation. Log (inhibition) vs. response-variable (four parameters). Prism was utilized to find the best-fit value and to calculate a complete confidence interval. […] ESCC (KYSE70) cells were seeded on a 96-well plate at a density of 2000 cells/well in complete medium. The next day, medium was replaced with the serum-reduced medium (5% FBS) containing 0-80 μM of cisplatin and 5 fixed doses of H5 (0 μM, 5 μM, 10 μM, 20 μM, or 40 μM). The cells were kept for 72 hrs. WST1 analysis, a MTT-like assay, was performed to assess proliferation. Log (inhibition) vs. response-variable (four parameters). Prism was utilized to find the best-fit value and to calculate a complete confidence interval. Synergistic effects of the chemotherapy drug combined with FAK H58 inhibitor. Chemotherapies are commonly used treatments for patients with ESCC. […] Cell proliferation was assessed using WST1, a MTT-like reagent. […]

NME1 (Homo sapiens), sequence (Q05397 whole entry): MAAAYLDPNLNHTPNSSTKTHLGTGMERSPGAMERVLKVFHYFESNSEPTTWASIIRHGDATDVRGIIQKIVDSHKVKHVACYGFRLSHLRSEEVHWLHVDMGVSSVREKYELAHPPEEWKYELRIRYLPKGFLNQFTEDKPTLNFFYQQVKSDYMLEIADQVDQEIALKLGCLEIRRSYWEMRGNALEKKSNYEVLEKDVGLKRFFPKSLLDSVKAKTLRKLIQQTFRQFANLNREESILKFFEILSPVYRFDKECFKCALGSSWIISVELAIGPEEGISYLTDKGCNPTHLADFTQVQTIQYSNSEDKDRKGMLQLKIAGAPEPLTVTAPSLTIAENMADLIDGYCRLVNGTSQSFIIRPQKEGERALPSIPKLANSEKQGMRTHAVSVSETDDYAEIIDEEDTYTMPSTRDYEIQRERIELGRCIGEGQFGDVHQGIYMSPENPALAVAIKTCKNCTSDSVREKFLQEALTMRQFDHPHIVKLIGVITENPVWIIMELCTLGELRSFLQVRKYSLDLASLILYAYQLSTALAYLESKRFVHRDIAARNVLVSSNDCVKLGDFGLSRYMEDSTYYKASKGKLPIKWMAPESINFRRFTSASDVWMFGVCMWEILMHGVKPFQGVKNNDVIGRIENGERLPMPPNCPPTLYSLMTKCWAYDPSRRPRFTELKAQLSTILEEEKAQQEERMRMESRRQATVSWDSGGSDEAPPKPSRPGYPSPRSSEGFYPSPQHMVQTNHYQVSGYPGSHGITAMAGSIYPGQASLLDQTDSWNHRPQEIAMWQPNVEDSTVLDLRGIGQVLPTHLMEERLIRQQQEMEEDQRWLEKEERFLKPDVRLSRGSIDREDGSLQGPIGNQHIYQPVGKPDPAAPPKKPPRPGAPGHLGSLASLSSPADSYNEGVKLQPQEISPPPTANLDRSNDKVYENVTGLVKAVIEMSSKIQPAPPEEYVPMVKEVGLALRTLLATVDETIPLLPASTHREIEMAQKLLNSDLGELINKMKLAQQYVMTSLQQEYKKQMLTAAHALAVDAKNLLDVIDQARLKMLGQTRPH
FAK-RB1 interaction, sequence (Q05397 whole entry): as above

O=c1nc(-c2ccccc2)c(-c2ccccc2)n[nH]1 [H5, 5,6-diphenyl-1,2,4-triazin-3(2H)-one]
IC50 (KYSE70 cells): 9 µM | IC50 (TE9): 0.38 µM | IC50 (TE10 cells): 0.088 µM | IC50 (KYSE70): 5.7 µM | Effect of combination with cisplatin on proliferation (ESCC (KYSE520) cells; KYSE520, 72 hr): enhanced the effects of cisplatin | Effect on Glc-induced FAK^pHis58 (FAK^pHis58): decreased Glc-induced FAK^pHis58 | Effect on NME1-catalyzed FAK^pHis (pHis-rFAK levels) (NME1 (Homo sapiens)): attenuates NME1-catalyzed FAK^pHis | Effect on FAK-RB1 interaction (FAK-RB1 interaction): prevents Glc-induced FAK-RB1 interaction

N.N.[Cl][Pt][Cl] [cisplatin]
IC50 (ESCC (KYSE70) cells; before adding H5A, read-out: IC50 of cisplatin (inhibitory effects)): 4 µM | IC50 (ESCC (KYSE70) cells; fixed doses of H5A, read-out: IC50 of cisplatin combined with H5A): 2 µM | IC50 (ESCC (KYSE520) cells; KYSE520, 5% FBS, 72 hr, before adding H5, read-out: IC50 of cisplatin): 31 µM | IC50 (ESCC (KYSE520) cells; KYSE520, 5% FBS, 72 hr, fixed doses of H5 (5-40 μM), read-out: IC50 of cisplatin combined with H5): 23 µM | IC50 (ESCC (KYSE520) cells; KYSE520, 72 hr, before adding H5A, read-out: IC50 of cisplatin (inhibitory effects)): 27 µM | IC50 (ESCC (KYSE520) cells; KYSE520, 72 hr, fixed doses of H5A, read-out: IC50 of cisplatin combined with H5A): 24 µM

CCOC(=O)CSc1nnc(-c2ccccc2)c(-c2ccccc2)n1 [H5B, ethyl [(5,6-diphenyl-1,2,4-triazin-3-yl)thio]acetate]
IC50 (TE10 cells): 0.065 µM
